Where a SMILES comes first, the peptide text is derived from it.

The test system of data set [1] is Normal non-cancerous fibroblasts. Kind of data set: Experiments 3 and 4, 96 well plates, viability by phase contrast microscopy. The data set is classed as cell-based. As to the method:
(§1) Normal non-cancerous fibroblasts and cancer cells were exposed to the linear hexamer PRGPRP SEQ ID NO: 5 in 96 micro well plates using the same protocol as for SEQ. ID NO: 1 as previously described. The percent viability of the cells in each well was calculated by visual observation under phase contrast microscopy as previously described.
(§2) In order to define structure/function relationships different peptides were constructed SEQ ID NOS 5-16. Normal non-cancerous fibroblasts and cancer cells were exposed to 5 mM of these peptides in 96 well plates as previously described. The sequence of these peptides is listed below. Results were scored at 21 days.

In the next data set the test system is cancer cells. Described as above. The data set is classed as cell-based. As to conditions: summary statement. As to the method:
as §1, §2

Another data set relates to H441 cells. Kind of data set: % viability by visual observation under phase contrast microscopy, 48 well, Experiment 2 first experiment. The data set is classed as cell-based, human. The method, then: (§3) In a first experiment, MGHU-1 cells (a human bladder cancer cell line), were plated in 48 well tissue culture dishes in 0.2 ml complete Hams F12 tissue culture medium supplemented with 10% foetal calf serum. SKMEL-2 cells (a human malignant melanoma cell line), HX34 cells (a human malignant melanoma cell line) and H441 cells (a human lung cancer cell line) were plated under identical conditions. The cells were incubated at 37° C. in an atmosphere of 5% CO2.
(§4) After 24 h, the culture medium was then removed from each well and replaced by Hams F12 complete tissue culture medium (without foetal calf serum). The culture medium added to each well was supplemented with a peptide having the sequence set out in SEQ ID NO:1, SEQ ID NO:2 or SEQ ID NO:3 at a concentration of either 0.5, 1.0 or 5.0 mM in such a way that each cell line was exposed to each peptide at each concentration.
(§5) The cells were then cultured for two days. Foetal calf serum was then added to a final concentration of 10%, and the cells were left for a further 5 days. The % viability of the cells in each well was calculated by visual observation under phase contrast microscopy. The effect of the peptides having the amino acid sequences set out in SEQ ID NO:1 and SEQ ID NO:3 on the viability of the SK MeI-2, MGHU-1, HX34 and H441 cell lines is shown in FIG. 12. […] Where the concentration of SEQ ID NO:1 was 1.0 mM, 100% of MGHU-1 cells were killed. The viability of the other cell lines was not affected.

Another data set relates to HX34 cells. Described as above. The data set is classed as cell-based, human. The method, then:
as §3, §4, §5

Another data set concerns MGHU-1 cells. The data set is described as above. The data set is classed as cell-based, human. The method, then:
as §3, §4, §5

The next data set deals with SKMEL-2 cells. The description is as above. The format is cell-based, human. The method, then:
as §3, §4, §5

Data set [2] relates to short term primary culture of human fibroblasts. Kind of data set: Experiment 2 further experiment, cells viewed under phase contrast microscopy. The data set is classed as cell-based. Particulars: for cytotoxicity to cultured primary cultures of normal human cells: conclusion of Experiment 2; for appearance of cells: 2.5 mM peptide, 2 days plus a further 7 days, FIG. 14. As to the method:
In a further experiment, using a different batch of synthesized peptide, RT112 cells (a human bladder cancer cell line), HT29 cells (a human colon cancer cell line) and MGHU cells (a human bladder cancer cell line) were plated as described above. In parallel, a short term primary culture of human fibroblasts was plated in 48 well plates. After 24 h, the tissue culture medium was removed from each well and replaced with Hams F12 complete tissue culture medium (without foetal calf serum) supplemented with either 2.5 mM SEQ ID NO:1 or 2.5 mM SEQ ID NO:4. After culturing for 2 days, foetal calf serum was added to a concentration of 10%. The cells were then cultured for a further 7 days and viewed under phase contrast microscopy.
These peptides are not cytotoxic to cultured primary cultures of normal human cells.

The test system of data set [3] is normal non cancerous fibroblasts. Kind of data set: Experiment 6, cell growth by daily phase-contrast microscopy, 96 well plates. The format is cell-based. As to the method:
(§6) Cancer cells and non-cancerous fibroblasts were separately seeded at 10^2 to 10^4 cells in 200 μl of Hams F12 tissue culture medium plus 10% fetal calf serum in 96 well plates and exposed to varying concentrations of a peptide having an amino acid sequence set out in SEQ ID NO: 17 ranging from 5.0 μM to 100 μM. Cell growth was studied by daily phase-contrast microscopy over 25 days.

Data set [4] concerns MGHU-1 bladder cancer cells. The description is as above. The format is cell-based, human. The method, then: as §6
Data set [5] relates to non-cancerous fibroblasts. Kind of data set: Subsequent experiments testing cancerous and non-cancerous cell lines. The format is cell-based.
The mark [6] stands for this setting: visual observation of cell density and viability.
The mark [7] stands for this setting: any concentration (0.5, 1.0 or 5.0 mM), day 7.

Consider `N=C(N)NCCC[C@H](NC(=O)[C@@H]1CCCN1)C(=O)NCC(=O)N1CCC[C@H]1C(=O)N[C@@H](CCCNC(=N)N)C(=O)N1CCC[C@H]1C(=O)O` [SEQ ID NO: 5, PRGPRP] (H-PRGPRP-OH), for which the state of fibroblasts result in data set [1] (21 days and beyond) is reported as “remained healthy”. The “growth of non-cancerous cells tested” value in [1] (summary statement) is reported as “non-inhibitory”. The “cytotoxicity to cancer cells tested” value with cancer cells is given as “cytotoxic”.

Regarding `CC(C)[C@H](NC(=O)[C@@H]1CCCN1C(=O)[C@H](CCCNC(=N)N)NC(=O)[C@@H](NC(=O)CNC(=O)[C@H](CCCNC(=N)N)NC(=O)[C@@H]1CCCN1C(=O)[C@@H](NC(=O)[C@@H](N)Cc1ccccc1)[C@@H](C)O)[C@@H](C)O)C(=O)N[C@@H](CCC(N)=O)C(=O)O` [SEQ ID NO:2] (H-FTPRGTRPVQ-OH; N-terminus and C-terminus assumed), the cytotoxicity result in the data set with H441 cells (setting [6]), in the data set with HX34 cells (setting [6]), in the data set with MGHU-1 cells (setting [6]) and in the data set with SKMEL-2 cells (setting [6]) was “cytotoxic” throughout. Besides, the “cytotoxicity compared with SEQ ID NO:1” value with H441 cells (setting [6]), in the data set with HX34 cells (setting [6]), in the data set on MGHU-1 cells (setting [6]) and with SKMEL-2 cells (setting [6]) was “less cytotoxic” in each case. In addition, in data set [2], the “cytotoxicity to cultured primary cultures of normal human cells” value was “not cytotoxic”.

Regarding `CC(C)[C@H](NC(=O)[C@H](CCCNC(=N)N)NC(=O)[C@H](Cc1ccccc1)NC(=O)[C@@H]1CCCN1C(=O)CNC(=O)[C@@H]1CCCN1)C(=O)N1CCC[C@H]1C(=O)N[C@@H](CCC(N)=O)C(=O)N1CCC[C@H]1C(=O)N[C@@H](CCCNC(=N)N)C(=O)O` [SEQ ID NO:4, reference compound] (H-PGPFRVPQPR-OH), in data set [2], the appearance of cells result was “appear to be healthy”.

For the compound “cyclo-[PRGPRPVPRGPRPVPRGPRPV] (cyclic) [SEQ ID NO: 17]”, the stimulation of fibroblasts entry is on record as “marked non-cancerous fibroblast stimulation” in data set [3] (10 days exposure, 10 μM, FIG. 18); “Marked stimulation” in [3] (between 5 and 10 days after exposure, 5.0 μM to 100 μM). Also, the cell morphology entry in [4] (after 20 days exposure, FIG. 19) was “marked loss of normal cell morphology”. Besides, the “cell morphology of cancerous cells” value in [4] (no complete detachment of dead cells from the plastic surface) is “loss of clear cell morphology”.

Regarding `CC(C)[C@H](NC(=O)[C@@H]1CCCN1C(=O)[C@H](CCCNC(=N)N)NC(=O)[C@@H]1CCCN1C(=O)CNC(=O)[C@H](CCCNC(=N)N)NC(=O)[C@@H]1CCCN1C(=O)[C@@H]1CCCN1C(=O)[C@@H](N)Cc1ccccc1)C(=O)N[C@@H](CCC(N)=O)C(=O)O` [SEQ ID NO:1] (H-FPPRGPRPVQ-OH; N-terminus and C-terminus assumed), in data set [2], the appearance of cells entry is on record as “appear to be healthy” and the “cytotoxicity to cultured primary cultures of normal human cells” value is on record as “not cytotoxic”. Also, in data set [5] (between days 20 and 25), the cell killing entry was “specific killing of cancerous cells and not non-cancerous fibroblasts”. For the same compound, the cell killing entry in [5] (within the first seven days, cells then recovered) is listed as “non specific killing”.

For the compound “ATTEGTETVQ [SEQ ID NO:3, reference compound]”, the viability result in the data set with H441 cells (setting [7]), in the data set on HX34 cells (setting [7]), in the data set with MGHU-1 cells (setting [7]) and in the data set with SKMEL-2 cells (setting [7]) was “did not affect viability” in each case.
